Laboratory results from patent US12448368B2, “Indole compounds as androgen receptor modulators” (NIDO BIOSCIENCES, INC., priority 2020, dated 2025).

Molecular target: T1, androgen receptor (AR) (Homo sapiens, UniProt P10275, T878A)
T1 construct: LNCaP cells expressing ARR2PB-FireflyLuc and CMV-RenillaLuc; endogenous in cells; host or cells: LNCaP cells carrying ARR2PB-FireflyLuc and CMV-RenillaLuc reporters
T1 sequence (P10275 1-920 T878A): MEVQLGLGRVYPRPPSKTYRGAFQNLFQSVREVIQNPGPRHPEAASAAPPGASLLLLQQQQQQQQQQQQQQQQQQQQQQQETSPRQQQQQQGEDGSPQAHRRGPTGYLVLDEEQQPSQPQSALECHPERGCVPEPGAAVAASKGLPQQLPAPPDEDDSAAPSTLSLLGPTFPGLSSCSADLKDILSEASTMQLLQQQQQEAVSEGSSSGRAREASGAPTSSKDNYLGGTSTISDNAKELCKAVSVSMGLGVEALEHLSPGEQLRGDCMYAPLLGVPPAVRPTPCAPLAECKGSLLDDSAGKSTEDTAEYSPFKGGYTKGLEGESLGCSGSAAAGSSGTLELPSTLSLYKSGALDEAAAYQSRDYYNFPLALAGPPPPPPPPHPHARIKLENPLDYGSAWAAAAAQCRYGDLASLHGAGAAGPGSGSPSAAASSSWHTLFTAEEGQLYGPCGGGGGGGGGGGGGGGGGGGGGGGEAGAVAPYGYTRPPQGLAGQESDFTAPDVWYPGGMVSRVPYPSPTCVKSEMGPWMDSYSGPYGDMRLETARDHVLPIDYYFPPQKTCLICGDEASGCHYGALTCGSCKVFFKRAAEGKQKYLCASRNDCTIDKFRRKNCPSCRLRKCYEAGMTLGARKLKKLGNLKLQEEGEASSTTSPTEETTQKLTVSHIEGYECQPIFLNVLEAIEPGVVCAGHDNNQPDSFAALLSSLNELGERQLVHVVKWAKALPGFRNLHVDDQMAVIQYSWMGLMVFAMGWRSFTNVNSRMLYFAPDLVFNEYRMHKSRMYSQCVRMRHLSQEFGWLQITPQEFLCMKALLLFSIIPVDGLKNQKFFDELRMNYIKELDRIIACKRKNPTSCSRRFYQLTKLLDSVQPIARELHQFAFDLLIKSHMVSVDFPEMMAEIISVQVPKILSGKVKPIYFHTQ
Experiment: AR reporter assay in LNCaP cells expressing ARR2PB-FireflyLuc and CMV-RenillaLuc, antagonist mode (% remaining activity, IC50)
Format: cell-based
Conditions: 48 h at 37° C., class symbols A-D, read-out: IC50
Description: LNCaP cells expressing ARR2PB-FireflyLuc and CMV-RenillaLuc were treated with indicated concentrations of test compounds, enzalutamide (negative control), or DHT (positive control)+/−0.5 nM DHT for 48 h at 37° C. […] Remaining activity (antagonist mode) was calculated as % Remaining Activity=100×[(Readsample−LCave)/(HCave−LCave)] where HC is cells treated with 0.5 nM DHT only and LC is cells treated with 10 uM enzalutamide+0.5 nM DHT. Activation (agonist mode) was calculated as % Activation=100×[(ReadSample−LCave)/(HCave−LCave)] where HC is cells treated with 1 uM DHT and LC is cells treated with DMSO. Dose response curves and IC50 values were calculated using non-linear regression analysis in XLfit.
The designation “A” indicates an IC50 value of >10 μM, “B” indicates an IC50 value between 1 μM and 10 μM; “C” indicates an IC50 value between 100 nM and 1 μM; and “D” indicates an IC50 value of less than 100 nM.

Row | Structure (SMILES) | IC50 [nM]
1 | Nc1ccc(-c2n[nH]c3cc(F)c(F)cc23)nc1Cl [Compound 93] | 100 to 1000
2 | CC1NC(=O)c2ccc(-c3nn(C)c4cc(F)c(F)cc34)nc21 (stereo not shown) [Compound 105] | > 10000
3 | O=S1(=O)CCNc2ccc(-c3n[nH]c4cc(F)c(F)cc34)nc21 [Compound 115] | > 10000
4 | Cc1nc(-c2c[nH]c3c(C#N)cccc23)cnc1OC1CC2CCC1N2 (stereo not shown) [Compound 223] | 1000 to 10000
5 | CC1(C)NCc2ccc(-c3n[nH]c4cc(F)c(F)cc34)nc21 [Compound 71] | > 10000
6 | Cc1nc(-c2coc3ccccc23)cnc1OCC(C)(C)O [Compound 338] | > 10000
7 | FC(F)(F)c1ccc(-c2n[nH]c3ccccc23)nc1 [Compound 61] | 1000 to 10000
8 | CC1NC(=O)c2ccc(-c3c[nH]c4cc(F)c(F)cc34)nc21 (stereo not shown) [Compound 136] | 100 to 1000
9 | Cc1nc(-c2c[nH]c3c(Cl)nccc23)cnc1OCC(C)(C)O [Compound 343] | > 10000
10 | Cc1nc(-c2n[nH]c3cc(F)c(F)cc23)ccc1C(N)=O [Compound 101] | > 10000
11 | Cc1nc(-c2c[nH]c3c(=O)n(C)ccc23)ccc1OC1CCNC1 (stereo not shown) [Compound 300] | > 10000
12 | Cc1cc(F)cc2c(-c3ccc4c(n3)CCCN4)n[nH]c12 [Compound 43] | 100 to 1000
13 | Fc1cc2[nH]nc(-c3ccc4c(n3)CCNC4)c2cc1F [Compound 30] | > 10000
14 | CC1CNc2ccc(-c3n[nH]c4cc(F)c(F)cc34)nc2O1 (stereo not shown) [Compound 70] | > 10000
15 | Fc1ccc(-c2n[nH]c3cc(F)ccc23)nc1 [Compound 111] | 100 to 1000
16 | CN1CCN(c2cccc(-c3n[nH]c4ccccc34)n2)CC1 [Compound 68] | > 10000
17 | Fc1cc2[nH]nc(-c3ccc4c(n3)CNCC4)c2cc1F [Compound 32] | > 10000
18 | c1cc2c(nc1-c1n[nH]c3c1COCC3)CCCN2 [Compound 83] | > 10000
19 | CN(C)c1ccc2c(-c3ccc4ccccc4n3)n[nH]c2c1 [Compound 4] | > 10000

Row | Structure (SMILES) | IC50 [nM]
20 | CC(C)(O)c1ccc(-c2n[nH]c3cc(F)c(F)cc23)cn1 [Compound 73] | > 10000
21 | Fc1cc(-c2c[nH]c3c(Cl)cccc23)ccc1OC1CCNC1 (stereo not shown) [Compound 254] | 1000 to 10000
22 | CC(=O)N1CCC(Oc2ncc(-c3c[nH]c4c(C(F)(F)F)cccc34)nc2C)C1 (stereo not shown) [Compound 258] | 100 to 1000
23 | CC1CCNc2ccc(-c3n[nH]c4cc(F)c(F)cc34)nc21 (stereo not shown) [Compound 46] | < 100
24 | CC1(C)NC(=O)c2ccc(-c3c[nH]c4c(C#N)c(Cl)ccc34)nc21 [Compound 185] | 1000 to 10000
25 | Fc1ccc(-c2c[nH]c3cccnc23)nc1 [Compound 201] | 1000 to 10000
26 | CC(=O)N1CCC(Oc2ncc(-c3c[nH]c4c(C#N)cccc34)nc2C(F)(F)F)C1 (stereo not shown) [Compound 269] | 100 to 1000
27 | CC1NC(=O)c2ccc(-c3n[nH]c4cc(F)c(F)cc34)nc21 (stereo not shown) [Compound 51] | 100 to 1000
28 | CC(C)NCc1cccc2c(-c3ccc4ncccc4n3)n[nH]c12 [Compound 87] | 1000 to 10000
29 | CC(=O)N(C)CCOc1ncc(-c2c[nH]c3c(Cl)cccc23)nc1C [Compound 263] | 100 to 1000
30 | COc1nc(-c2c[nH]c3c(C#N)cccc23)cnc1OC1CCN(C(C)=O)C1 (stereo not shown) [Compound 278] | 1000 to 10000
31 | NCc1cccc2c(-c3ccc4ncccc4n3)n[nH]c12 [Compound 86] | 100 to 1000
32 | Fc1cc2[nH]nc(-c3ccc4c(n3)COCC4)c2cc1F [Compound 39] | 1000 to 10000
33 | CN1CCOc2nc(-c3n[nH]c4cc(F)c(F)cc34)ccc21 [Compound 13] | 1000 to 10000
34 | c1ccc2c(-c3ccc4c(n3)CCCN4)n[nH]c2c1 [Compound 9] | 100 to 1000
35 | c1ccc2c(-c3ccc4cnccc4n3)n[nH]c2c1 [Compound 7] | 100 to 1000
36 | CC1(C)NC(=O)c2ccc(-c3c[nH]c4c(C(F)(F)F)cccc34)nc21 [Compound 187] | < 100
37 | CC1(C)NC(=O)c2ccc(-c3c[nH]c4cc(F)c(F)cc34)cc21 [Compound 143] | 1000 to 10000
38 | Fc1cc2[nH]nc(-c3ncc4c(n3)CCCN4)c2cc1F [Compound 55] | > 10000

Now from value to compound:

Row | IC50 [nM] | Structure (SMILES)
39 | 1000 to 10000 | Cc1nc(-c2c[nH]c3c(C#N)cc(Cl)cc23)ccc1N [Compound 153]
40 | 100 to 1000 | Cc1nc(-c2c[nH]c3c(C#N)cccc23)ccc1NCCN [Compound 220]
41 | 1000 to 10000 | COCCOc1cccc(-c2c[nH]c3c(C#N)cccc23)n1 [Compound 167]
42 | 100 to 1000 | CC(=O)N1CCC(Oc2ncc(-c3c[nH]c4c(C#N)cccc34)nc2C)C1 (stereo not shown) [Compound 194]
43 | > 10000 | COCC(COC)Nc1ncc(-c2c[nH]c3c(C#N)cccc23)nc1C [Compound 228]
44 | 1000 to 10000 | N#Cc1cccc2c(-c3cnc(OC4CCNC4)cn3)c[nH]c12 (stereo not shown) [Compound 222]
45 | > 10000 | Cc1nc(-c2c[nH]c3c(C#N)cccc23)cnc1NC1CCCNC1 (stereo not shown) [Compound 232]
46 | 1000 to 10000 | Cc1nc(-c2c[nH]c3c(C#N)cccc23)cnc1OC1C2CNCC21 (stereo not shown) [Compound 224]
47 | 1000 to 10000 | Cc1ccc2c(-c3ccc(N)c(C)n3)c[nH]c2c1C#N [Compound 150]
48 | 1000 to 10000 | Cc1cc(C#N)c2[nH]cc(-c3ccc(N)c(C)n3)c2c1 [Compound 152]
49 | > 10000 | CC1(C)c2nc(-c3c[nH]c4c(C#N)cccc34)ccc2C(=O)N1C1CCOC1 (stereo not shown) [Compound 158]
50 | 100 to 1000 | Cc1nc(-c2c[nH]c3c(C#N)cccc23)ccc1NCCO [Compound 190]
51 | < 100 | N#Cc1cccc2c(-c3cnc(OC(F)F)c(N)c3)c[nH]c12 [Compound 171]
52 | > 10000 | Cc1nc(-c2c[nH]c3c(-c4nnco4)cccc23)ccc1N [Compound 144]
53 | 1000 to 10000 | Cc1nc(-c2c[nH]c3c(C#N)cccc23)cnc1OC1CNCC1(F)F (stereo not shown) [Compound 322]
54 | > 10000 | CC1(C)NC(=O)c2cnc(-c3c[nH]c4c(C#N)cccc34)cc21 [Compound 270]
55 | < 100 | CNc1ccc(-c2c[nH]c3c(C#N)cccc23)nc1C [Compound 146]
56 | > 10000 | CNC(=O)c1cccc2c(-c3ccc(N)c(C)n3)c[nH]c12 [Compound 145]

Row | IC50 [nM] | Structure (SMILES)
57 | 100 to 1000 | Cc1nc2ccc(-c3c[nH]c4c(C#N)cccc34)cc2s1 [Compound 179]
58 | 100 to 1000 | COCCN(C)c1cncc(-c2c[nH]c3c(C#N)cccc23)n1 [Compound 177]
59 | > 10000 | Cc1nc(-c2c[nH]c3c(C#N)cccc23)cnc1NC1CCNCC1 [Compound 231]
60 | 100 to 1000 | N#Cc1cccc2c(-c3ccc(N)c(Cl)n3)c[nH]c12 [Compound 137]
61 | 1000 to 10000 | Cc1nc(-c2c[nH]c3c(C#N)cccc23)cnc1SC1CCNC1 (stereo not shown) [Compound 281]
62 | 100 to 1000 | CC(=O)N1CCC(Oc2ccc(-c3c[nH]c4c(C#N)cccc34)nc2C(F)(F)F)C1 (stereo not shown) [Compound 262]
63 | > 10000 | Cc1nc(OC2C3CNCC32)cnc1-c1c[nH]c2c(C#N)cccc12 (stereo not shown) [Compound 225]
64 | 1000 to 10000 | Cc1cc(-c2c[nH]c3c(C#N)cccc23)ncc1N [Compound 138]
65 | < 100 | COc1cncc(-c2c[nH]c3c(C#N)cccc23)n1 [Compound 215]
66 | < 100 | N#Cc1cccc2c(-c3cnc(N)c(OC(F)F)n3)c[nH]c12 [Compound 172]
67 | 100 to 1000 | N#Cc1cccc2c(-c3cnc(NC4CCNC4)c(OC(F)F)n3)c[nH]c12 (stereo not shown) [Compound 226]
68 | 1000 to 10000 | Cc1nc(-c2c[nH]c3c(C#N)cccc23)ccc1NC(C)C(=O)N(C)C (stereo not shown) [Compound 191]
69 | < 100 | N#Cc1cccc2c(-c3ccc(F)cn3)c[nH]c12 [Compound 127]
70 | 1000 to 10000 | Cc1nc(-c2c[nH]c3c(C#N)cccc23)cnc1OC1(C)CCNC1 (stereo not shown) [Compound 308]
71 | 100 to 1000 | Cc1nc(-c2c[nH]c3c(C#N)cccc23)cnc1OC1CC(N)C1 (stereo not shown) [Compound 274]
72 | > 10000 | CCc1nc(-c2c[nH]c3c(C#N)cccc23)cnc1OCCN [Compound 267]
73 | 100 to 1000 | Cc1nc(-c2c[nH]c3c(C#N)cccc23)cnc1O[C@@H]1CNC[C@@H]1F [Compound 297]
